According to patent US20240158447A1, “PEPTIDES FOR USE IN THE TREATMENT OR PREVENTION OF MYOCARDIAL DAMAGE” (THE UNIVERSITY OF WESTERN AUSTRALIA, priority 2020, published 2024):

Tests used:
cTnI-G203S mice = experiment: Echocardiography of pre-cardiomyopathic cTnI-G203S mice (Example 15); format: in vivo, mouse; settings: 5 μM, 3×/wk/5 wk; versus AID(S)-TAT; FIG. 15
Description: Twenty to thirty week-old male mice expressing the human cTnI gene encoding the human disease-causing cTnI-G203S were generated and used for the in vivo studies. By way of background, the mice develop hallmark features of HCM between 20 and 25 weeks (Viola H, Johnstone V, Cserne Szappanos H, Richman T, Tsoutsman T, Filipovska A, et al. The L-type Ca(2+) channel facilitates abnormal metabolic activity in the cTnI-G2035 mouse model of hypertrophic cardiomyopathy. J Physiol. 2016; 594(14):4051-70; Viola H M, Shah A A, Johnstone V P A, Cserne Szappanos H, Hodson M P, Hool L C. Characterization and validation of a preventative therapy for hypertrophic cardiomyopathy in a murine model of the disease. Proc Nati Aced Sci U S A. 2020; 117(37):23113-24; Tsoutsman T, Chung J, Doolan A, Nguyen L, Williams IA, Tu E, et al. Molecular insights from a novel cardiac troponin I mouse model of familial hypertrophic cardiomyopathy. J Mol Cell Cardiol. 2006; 41(4):623-32). Age-matched male mice expressing the normal human troponin I gene were used as controls and indicated as wild-type (wt). For in vivo studies, 20-week old cTnI-G203S mice were treated with 10 μM AID(S)-TAT (2 mg/kg) or 5 μM AID-TAT mutant peptides via intraperitoneal injection, 3 times per week for a total duration of 5 weeks. The peptide was dissolved in phosphate buffered saline solution (PBS), and the total amount of the 10 μM AID-TAT mutant peptides administered over 5 weeks was 0.9 mg. The total amount of the 5 μM AID-TAT mutant peptides administered over 5 weeks was 0.45 mg Male mice were utilized to eliminate potential differences in responses due to gender. The number of mice used is indicated by N.
Echocardiographic studies to measure left ventricular function were performed on mice under light methoxyflurane anaesthesia with the use of an i13L probe on a Vivid™ 7 IQ ultrasound system (GE Healthcare, Little Chalfont, UK) as previously described (Viola H, Johnstone V, Cserne Szappanos H, Richman T, Tsoutsman T, Filipovska A, et al. The L-type Ca(2+) channel facilitates abnormal metabolic activity in the cTnI-G2035 mouse model of hypertrophic cardiomyopathy. J Physiol. 2016; 594(14):4051-70; Viola H M, Shah A A, Johnstone V P A, Cserne Szappanos H, Hodson M P, Hool L C. Characterization and validation of a preventative therapy for hypertrophic cardiomyopathy in a murine model of the disease. Proc Natl Acad Sci U S A. 2020; 117(37):23113-24; Viola H M, Johnstone V P A, Cserne Szappanos H, Richman T R, Tsoutsman T, Filipovska A, et al. The Role of the L-Type Ca(2+) Channel in Altered Metabolic Activity in a Murine Model of Hypertrophic Cardiomyopathy. JACC Basic Transl Sci. 2016; 1(1-2):61-72). Each N represents the average of quantitative measurements from wt or cTnI-G203S mice for each treatment group.

cTnI.2 wt myocytes = experiment: Flavoprotein oxidation response to BayK(−), wt myocytes (Example 10); format: cell-based, mouse; settings: 0.5 μM peptide 20 min, 10 μM BayK(−), FIG. 10B
Procedure: In this experiment wt myocytes were pre-exposed to 0.1, 0.5 or 1 μM for 20 min and assessed changes in flavoprotein oxidation and ψm.
Measurement of mitochondrial flavoprotein oxidation: Flavoprotein autofluorescence was used to measure flavoprotein oxidation based on previously described methods (Yaniv Y, Juhaszova M, Lyashkov A E, Spurgeon H A, Sollott S J, Lakatta E G. Ca2+-regulated-cAMP/PKA signaling in cardiac pacemaker cells links ATP supply to demand. J Mol Cell Cardiol. 2011; 51(5):740-8). […] Fluorescent images were acquired at 1 min intervals with 200 ms exposure. Metamorph 6.3 (Version 7.10.3) was used to quantify the signal by manually tracing myocytes. An equivalent region not containing cells was used as background and was subtracted. Fluorescence values recorded over 5 min before and 5 min after addition of drugs were averaged and alterations in fluorescent ratios reported as the percentage increase from the basal average. FCCP (50 μM) and NaCN (40 mM) was added at the end of each experiment to achieve a respective maximal and minimal fluorescence value indicative of maximal and minimal flavoprotein oxidation.
The ICA-L agonist BayK(−) was used to activate the channel and assess mitochondrial function. […] FIG. 10 presents the mean+/−SEM of flavoprotein fluorescence from cTnI.2 wt and cTnI-G2035 mutant myocytes before and after exposure to 10 μM BayK(−) in the presence of 1 μM AID(S)-TAT, and increasing concentrations of variant peptides as indicated. N=no. of animals, n=no. of cardiomyocytes. P values shown compared with AID(S)-TAT as determined by the Kruskal-Wallis test.

[1] = biological target: T1, L-type Ca^2+ channel β2 subunit (Homo sapiens, UniProt Q08289); experiment: Binding competition assay of variant peptides for the β2 subunit (AID-coated beads, heart lysate, SDS-PAGE); settings: competition with bead-bound AID peptide, whole heart lysate, immunoblot densitometry; FIG. 2
T1 construct: from tissue; host or cells: whole heart (cardiac) lysate
T1 sequence (Q08289 whole entry): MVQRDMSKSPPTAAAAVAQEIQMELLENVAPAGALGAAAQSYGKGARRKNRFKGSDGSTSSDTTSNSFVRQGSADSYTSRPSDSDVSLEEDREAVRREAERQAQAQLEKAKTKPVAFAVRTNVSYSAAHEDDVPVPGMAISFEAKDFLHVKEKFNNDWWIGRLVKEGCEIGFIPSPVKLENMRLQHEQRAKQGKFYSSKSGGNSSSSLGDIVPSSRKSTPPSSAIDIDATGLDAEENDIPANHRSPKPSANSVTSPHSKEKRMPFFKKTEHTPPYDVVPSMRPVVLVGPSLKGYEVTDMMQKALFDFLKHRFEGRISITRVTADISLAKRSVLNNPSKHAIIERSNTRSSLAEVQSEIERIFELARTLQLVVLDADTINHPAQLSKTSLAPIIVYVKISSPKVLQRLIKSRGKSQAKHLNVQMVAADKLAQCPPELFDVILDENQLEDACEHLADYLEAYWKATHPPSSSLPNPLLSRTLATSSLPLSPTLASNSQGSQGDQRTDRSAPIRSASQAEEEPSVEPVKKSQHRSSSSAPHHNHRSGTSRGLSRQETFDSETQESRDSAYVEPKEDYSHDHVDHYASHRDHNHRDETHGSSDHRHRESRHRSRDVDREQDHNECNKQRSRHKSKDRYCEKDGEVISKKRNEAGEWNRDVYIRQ
Procedure: The affinity of each of the variant peptides to the β2 subunit was investigated through binding competition assays.
PureProteome™ NHS FlexiBind Magnetic Beads (Cat. #LSKMAGN04, Merck) were used following manufacturer recommendations. Aminohexanoic acid linked AID peptide was bound to the NHS flexibind magnetic beads at a concentration of more than 2 mg/mL to obtain saturation of the beads with peptide. Beads were first primed with an equilibration buffer (1 mM HCL) to prepare them for binding. The Ahx-AID peptide was dissolved in wash/coupling buffer (PBS, pH 7.4) and added to the beads. The beads-AID peptide mixture was left to mix uniformly on a multiplate shaker at a speed of 300 rpm at room temperature for 2 hours. To reduce non-specific binding the beads were incubated in Quench Buffer (100 mM Tris-HCl, 150 mM NaCl, pH 8.0) at room temperature for 1 hour.
The AID-peptide bound beads were split into 5 aliquots for the 5 samples prepared in Table 5. The whole heart lysate added to each of the peptide-bound beads to allow competitive binding for 2 hours at room temperature.
Upon completion, the conjugate was washed in coupling buffer, to remove unbound fraction. SDS sample buffer was added to the beads, with the tubes then heated for 5 minutes at 95° C. The eluted sample stored at −20° C. to be run through sodium dodecyl sulfate-polyacrymalide gel electrophoresis (SDS-PAGE) to determine the binding affinity of each of the variants.
The use of streptavidin dynabeads and biotinylated peptide was developed to improve the binding affinity assays. The peptide was initially biotinylated using EZ-link amine-PEG11-biotin (Spacer arm: 53.2 Å, Thermofisher Scientific, Cat. #26136) which was dissolved in 0.1M MES buffer ((2-N-morpholino)-ethanesulfonic acid) at a concentration of 1 mM. Just prior to the reaction, 0.1M EDC (N-(3-Dimethylaminopropyl)-N′-ethylcarbodiimide hydrochloride) was dissolved in MES buffer. In order to achieve complete biotinylation of the AID peptide, a 50× molar excess of biotin to peptide was required, with the total volumes of each component required shown in Table 6.
Each 78 μL aliquot of the biotinylated peptide shown in […] was enough for 6 reactions, covering the range of concentrations in which the heart lysate was again prepared with varying concentrations of the variant AID peptides according to Table 7.
The 78 μL aliquot of biotinylated AID-peptide was mixed with streptavidin dynabeads (1 mg Dynabeads per every 200 pmol biotinylated peptide) for half an hour at room temperature. The heart lysate ([…]) was incubated with the variant peptides at room temperature for 2 hours. After removing all unbound peptide from the beads, they were mixed with the pre-bound heart lysate for 2 hours at room temperature. The unbound fraction was removed. […]

Cavβ2 subunit = biological target: T2, Cavβ2 subunit (Homo sapiens, UniProt Q08289); experiment: Competitive binding affinity assay, biotinylated AID affinity beads vs Cavβ2 subunit (Example 9); settings: dose-response 0, 10 nM to 100 μM peptide; FIG. 9
T2 construct: incubated with 100 μg of Cavβ2 subunit from cardiac homogenate and cytoplasmic protein preparation; from tissue; host or cells: cardiac homogenate and cytoplasmic protein preparation
T2 sequence (Q08289 whole entry): as above
Procedure: In this experiment, a binding affinity assay was utilized to examine the binding efficacy of AID peptide variants presented in Table 8, compared to the original AID peptide.
Biotinylation of original AID (no TAT): For each reaction (a dose-response curve consisted of 6 reactions), 0.02 nM […] was incubated in biotinylation solution (0.1M MES buffer containing 1 nM amine-PEG11-biotin and 0.2 nM EDC) for 2 hrs at room temperature with agitation (400 rpm). Affinity beads (Dynabeads M-280 Streptavidin, ThermoFisher Scientific) were then incubated with biotinylated AID peptide for 30 min at room temperature with agitation (400 rpm). Afterwards, biotinylated AID-coated affinity beads were washed, initially in 0.1% BSA in PBS and then three times in PBS for 3 min.
Biochem J. 2000; 348 Pt 3:657-65; Haase H, Striessnig J, Holtzhauer M, Vetter R, Glossmann H. A rapid procedure for the purification of cardiac 1,4-dihydropyridine receptors from porcine heart. Eur J Pharmacol. 1991; 207(1):51-9).
Competitive binding of AID-affinity beads and Cavβ2 subunit: Cavβ2-AID mutant peptide dilutions were then incubated with biotinylated AID-coated affinity beads for 2 hrs at room temperature with gentle agitation (400 rpm). Samples were placed on a magnetic stand to allow affinity beads to migrate to the magnet. Supernatant was removed and treated with 1× sample buffer (62.5 mM Tris-HCl, pH 6.8, 2% SDS, 10% glycerol, 100 mM DTT, 0.002% Bromophenol Blue) for 5 min at 95° C. Resulting protein was analysed by immunoblot.

[2] = system: myocytes isolated from cTnI-G203S mutant mouse hearts; experiment: Mitochondrial flavoprotein oxidation after BayK(−), myocytes from HCM hearts (Example 6); format: cell-based; settings: FIG. 5
Procedure: FIG. 5 presents the effect of mutant peptides on flavoprotein oxidation, a measure of metabolic activity and oxygen consumption in myocytes isolated from cTnI-G203S mutant mouse hearts that are hypertrophic.
All in vitro studies were performed in freshly isolated myocytes at 37° C. […] Following a 20 min incubation with 0.5-1 μM AID(S)-TAT, AID-TAT, peptide 6 or peptide 7, fluorescent signal of individual myocytes was quantified using Metamorph 6.3 to measure signal intensity of manually traced cell regions. An equivalent region not containing cells was used for background and was subtracted.
Autofluorescence was used to measure flavoprotein oxidation in cardiac myocytes based on previously described methods (480 nm ex, 535 nm em). Fluorescent images were taken at 1 min intervals with 1 s exposure before and after exposure to L-type Ca2+ channel agonist BayK(−). Fluorescence was reported as a percentage from the baseline pre-treatment average.

AIDP16-TAT: QQREEDLKGYLDWITQAE with TAT sequence
IVSd, intraventricular septum in diastole (cTnI-G203S mice): restored IVSd and IVSs only | IVSs, intraventricular septum in systole (cTnI-G203S mice): restored IVSd and IVSs only

QQEEEDEKGYLDWITQAE (Variant P15)
BayK(−) induced increase in flavoprotein oxidation (cTnI.2 wt myocytes): effective | binding affinity (K0.5) for the target β2 subunit versus the original AID peptide [1]: greater binding affinity (lower K0.5) | K0.5 values compared to AID peptide (Cavβ2 subunit): decreased K0.5 values | flavoprotein oxidation in comparison with AID-TAT peptide [2]: statistically significant reduction in flavoprotein oxidation in comparison with AID-TAT peptide

QQEEEDLKGYLDWITQAE (Varian P14) [Variant P14]
BayK(−) induced increase in flavoprotein oxidation (cTnI.2 wt myocytes): effective | binding affinity (K0.5) for the target β2 subunit versus the original AID peptide [1]: greater binding affinity (lower K0.5) | K0.5 values compared to AID peptide (Cavβ2 subunit): decreased K0.5 values | flavoprotein oxidation in comparison with AID-TAT peptide [2]: statistically significant reduction in flavoprotein oxidation in comparison with AID-TAT peptide

QQREEDLKGYLDWITQAE (Variant P16)
binding affinity (K0.5) for the target β2 subunit versus the original AID peptide [1]: greater binding affinity (lower K0.5) | K0.5 values compared to AID peptide (Cavβ2 subunit): decreased K0.5 values
